Reference: patent US20110053773A1, “METHODS OF IMPROVING NUTRITIONAL VALUE OF PLANTS” (UNIVERSITY OF TENNESSEE RESEARCH FOUNDATION, priority 2009, published 2011)

Tested on: 'Riviera' bermudagrass
Experiment: Leaf tissue pigment concentrations of bermudagrass after mesotrione (Example 5, Table 16)
Assay type: in vivo, Cynodon dactylon (L.) Pers.
Settings: for Blade tissue pigments: Beta-carotene / Blade tissue pigments: Lutein / Blade tissue pigments: Phytoene / Blade tissue pigments: Total Carotenoids / Blade tissue pigments: Violaxanthin / Blade tissue pigments: Zeaxanthin: 0.28 kg ai×ha^−1
From the text: Greenhouse and laboratory studies were initiated with ‘Riviera’ bermudagrass (Cynodon dactylon (L.) Pers.) treated postemergence with mesotrione at 0.28 kg×ha^−1 and sampled for tissue pigment concentrations at 0, 3, 7, 14, 21, 28 and 35 days after treatment (DAT; Table 16). […] Due to the antioxidant activity of these carotenoid pigments, these increases should improve bermudagrass stress tolerance (Kopsell et al., 2010).

CS(=O)(=O)c1ccc(C(=O)C2C(=O)CCCC2=O)c([N+](=O)[O-])c1 [Mesotrione*CALLISTO, mesotrione]
Blade tissue pigments: Beta-carotene (0 days after treatment): 17.2 mg/100 g fresh weight | Blade tissue pigments: Lutein (0 days after treatment): 23.6 mg/100 g fresh weight | Blade tissue pigments: Phytoene (0 days after treatment): 0.0 mg/100 g fresh weight | Blade tissue pigments: Total Carotenoids (0 days after treatment): 57.5 mg/100 g fresh weight | Blade tissue pigments: Violaxanthin (0 days after treatment): 6.9 mg/100 g fresh weight | Blade tissue pigments: Zeaxanthin (0 days after treatment): 3.2 mg/100 g fresh weight | Blade tissue pigments: Beta-carotene (3 days after treatment): 11.6 mg/100 g fresh weight | Blade tissue pigments: Lutein (3 days after treatment): 14.8 mg/100 g fresh weight | Blade tissue pigments: Phytoene (3 days after treatment): 37.5 mg/100 g fresh weight | Blade tissue pigments: Total Carotenoids (3 days after treatment): 42.9 mg/100 g fresh weight | Blade tissue pigments: Violaxanthin (3 days after treatment): 1.6 mg/100 g fresh weight | Blade tissue pigments: Zeaxanthin (3 days after treatment): 3.1 mg/100 g fresh weight | Blade tissue pigments: Beta-carotene (7 days after treatment): 7.4 mg/100 g fresh weight | Blade tissue pigments: Lutein (7 days after treatment): 14.1 mg/100 g fresh weight | Blade tissue pigments: Phytoene (7 days after treatment): 38.0 mg/100 g fresh weight | Blade tissue pigments: Total Carotenoids (7 days after treatment): 35.6 mg/100 g fresh weight | Blade tissue pigments: Violaxanthin (7 days after treatment): 1.6 mg/100 g fresh weight | Blade tissue pigments: Zeaxanthin (7 days after treatment): 3.3 mg/100 g fresh weight | Blade tissue pigments: Beta-carotene (14 days after treatment): 7.6 mg/100 g fresh weight | Blade tissue pigments: Lutein (14 days after treatment): 16.4 mg/100 g fresh weight | Blade tissue pigments: Phytoene (14 days after treatment): 11.7 mg/100 g fresh weight | Blade tissue pigments: Total Carotenoids (14 days after treatment): 47.2 mg/100 g fresh weight | Blade tissue pigments: Violaxanthin (14 days after treatment): 3.5 mg/100 g fresh weight | Blade tissue pigments: Zeaxanthin (14 days after treatment): 3.8 mg/100 g fresh weight | Blade tissue pigments: Beta-carotene (21 days after treatment): 11.4 mg/100 g fresh weight | Blade tissue pigments: Lutein (21 days after treatment): 21.2 mg/100 g fresh weight | Blade tissue pigments: Phytoene (21 days after treatment): 0.0 mg/100 g fresh weight | Blade tissue pigments: Total Carotenoids (21 days after treatment): 60.1 mg/100 g fresh weight | Blade tissue pigments: Violaxanthin (21 days after treatment): 4.0 mg/100 g fresh weight | Blade tissue pigments: Zeaxanthin (21 days after treatment): 4.7 mg/100 g fresh weight | Blade tissue pigments: Beta-carotene (28 days after treatment): 18.9 mg/100 g fresh weight | Blade tissue pigments: Lutein (28 days after treatment): 32.1 mg/100 g fresh weight | Blade tissue pigments: Phytoene (28 days after treatment): 0.0 mg/100 g fresh weight | Blade tissue pigments: Total Carotenoids (28 days after treatment): 77.2 mg/100 g fresh weight | Blade tissue pigments: Violaxanthin (28 days after treatment): 2.8 mg/100 g fresh weight | Blade tissue pigments: Zeaxanthin (28 days after treatment): 5.7 mg/100 g fresh weight | Blade tissue pigments: Beta-carotene (35 days after treatment): 21.2 mg/100 g fresh weight | Blade tissue pigments: Lutein (35 days after treatment): 37.1 mg/100 g fresh weight | Blade tissue pigments: Phytoene (35 days after treatment): 0.0 mg/100 g fresh weight | Blade tissue pigments: Total Carotenoids (35 days after treatment): 92.7 mg/100 g fresh weight | Blade tissue pigments: Violaxanthin (35 days after treatment): 6.8 mg/100 g fresh weight | Blade tissue pigments: Zeaxanthin (35 days after treatment): 6.4 mg/100 g fresh weight | pigments in treated plants (0.28 kg/ha postemergence, after initial decrease with tissue whitening): most recovered to untreated levels by 21 DAT | lutein, β-carotene, and zeaxanthin versus untreated control plants (0.28 kg/ha postemergence, at 35 DAT): accumulated to levels exceeding untreated control plants | phytoene detection (0.28 kg/ha postemergence, sampled 0 to 35 DAT): only detected in mesotrione treated plants at 3, 7, and 14 DAT
